pIC50: −log10 of the molar value.
Assays:
Format in all cases: cell-based
human androgen receptor = human androgen receptor (Homo sapiens (Human), UniProt P10275); assay: Antagonist activity for AR (pMMTV-luc reporter transcription activity in transfected COS-7 cells, DHT 1 nmol/L); details: for pIC50: 50% transcription activity inhibition concentration, COS-7 cells with pMMTV-luc and pEX-hAR, DHT 1 nmol/L, 24 hours; for antagonist activity for AR (in words): COS-7 reporter assay
Protocol: Antagonist activity for AR was evaluated according to the following method. COS-7 cells (ATCC) were transfected with pMMTV-luc vector (reporter plasmid having, as an androgen response element, […] long terminal repeat) and pEX-hAR vector (human androgen receptor expression vector: which expresses human AR gene under control of CMV promoter) by using Nucleofector (registered trademark) Kit R (Lonza) as a transfection reagent and Amaxa (Lonza). The COS-7 cells obtained after transfection were seeded in a clear bottom 96 well microplate (BD) at 1.5×10^4/well with phenol red free RPMI1640 containing 10% charcoal-treated fetal bovine serum (hereinbelow, DCC-FBS) (hereinbelow, the medium is referred to as an evaluation medium), and then cultured overnight. […] Then, the transcription activity value was measured. The transcription activity was measured by using Bright-Glo™ Luciferase Assay System (Promega).

[1] = system: AR positive human prostate cancer cells VCaP; assay: Agonist activity for AR (cell proliferation rate of VCaP cells); details: 72 hours, 2 to 10000 nmol/L, more than 10% at any concentration = agonist activity for AR
Protocol: AR positive human prostate cancer cells VCaP (In Vivo 15:163-168, 2001) were seeded in a clear bottom 96 well microplate (BD) at 1.5×10^4/well with phenol red free RPMI1640 containing 5% DCC-FBS (hereinbelow, the medium is referred to as an evaluation medium), and then cultured overnight. The culture was added with the evaluation medium containing the compound of Examples or the compound of Comparative Examples (final concentration of the compound of Examples or the compound of Comparative Examples: 2, 5, 14, 41, 123, 370, 1111, 3333, or 10000 nmol/L), followed by culture for 72 hours. Then, the number of viable cells was counted (test group). As a control, the cells were cultured after being added with the evaluation medium only, and the number of viable cells was counted (control group). The number of viable cells was measured by using CellTiter-Glo™ Luminescent Cell Viability Assay (Promega). From the measured number of viable cells, cell proliferation rate with respect to the compound of Examples or the compound of Comparative Examples was calculated based on the number of viable cells measured in the case of using the evaluation medium only. Cell proliferation rate (%) =(Number of viable cells in test group−Number of viable cells in control group)/(Number of viable cells in control group)×100
By considering an error in the number of viable cells measured in the case of using the evaluation medium only, when the cell proliferation rate was more than 10% at any concentration of the 9 concentrations which had been evaluated, it was determined to have an agonist activity for AR.

androgen receptor = androgen receptor (Homo sapiens (Human), UniProt P10275, T878A); assay: Activity of reducing expression level of androgen receptor (Western blotting of LNCaP cell lysate); details: 48 hours
Protocol: AR positive human prostate cancer cells LNCaP were seeded in a clear bottom 6 well microplate (BD) at 3.5×10^5/well with phenol red free RPMI1640 containing 5% FBS (hereinbelow, the medium is referred to as an evaluation medium), and then cultured overnight. The culture was added with the evaluation medium containing the compound of Examples or the compound of Comparative Examples such that the final concentration of the compound of Examples or the compound of Comparative Examples was 10000 nmol/L, followed by culture for 48 hours. After culture for 48 hours, the medium was removed and the cells were washed with PBS and added with 0.1 mL of Lysis buffer (M-PER added with Protease Inhibitor Cocktail), followed by keeping at 4° C. for 20 minutes. After cell lysis, the cell solution was centrifuged to recover the supernatant as cell lysate. […] The antibody-reacting band (anti AR receptor) was quantified by LAS-3000 (FUJIFILM) using Super Signal West Pico Substrate (Thermo Scientific) as a detection reagent.

Chain of human androgen receptor (P10275 whole entry): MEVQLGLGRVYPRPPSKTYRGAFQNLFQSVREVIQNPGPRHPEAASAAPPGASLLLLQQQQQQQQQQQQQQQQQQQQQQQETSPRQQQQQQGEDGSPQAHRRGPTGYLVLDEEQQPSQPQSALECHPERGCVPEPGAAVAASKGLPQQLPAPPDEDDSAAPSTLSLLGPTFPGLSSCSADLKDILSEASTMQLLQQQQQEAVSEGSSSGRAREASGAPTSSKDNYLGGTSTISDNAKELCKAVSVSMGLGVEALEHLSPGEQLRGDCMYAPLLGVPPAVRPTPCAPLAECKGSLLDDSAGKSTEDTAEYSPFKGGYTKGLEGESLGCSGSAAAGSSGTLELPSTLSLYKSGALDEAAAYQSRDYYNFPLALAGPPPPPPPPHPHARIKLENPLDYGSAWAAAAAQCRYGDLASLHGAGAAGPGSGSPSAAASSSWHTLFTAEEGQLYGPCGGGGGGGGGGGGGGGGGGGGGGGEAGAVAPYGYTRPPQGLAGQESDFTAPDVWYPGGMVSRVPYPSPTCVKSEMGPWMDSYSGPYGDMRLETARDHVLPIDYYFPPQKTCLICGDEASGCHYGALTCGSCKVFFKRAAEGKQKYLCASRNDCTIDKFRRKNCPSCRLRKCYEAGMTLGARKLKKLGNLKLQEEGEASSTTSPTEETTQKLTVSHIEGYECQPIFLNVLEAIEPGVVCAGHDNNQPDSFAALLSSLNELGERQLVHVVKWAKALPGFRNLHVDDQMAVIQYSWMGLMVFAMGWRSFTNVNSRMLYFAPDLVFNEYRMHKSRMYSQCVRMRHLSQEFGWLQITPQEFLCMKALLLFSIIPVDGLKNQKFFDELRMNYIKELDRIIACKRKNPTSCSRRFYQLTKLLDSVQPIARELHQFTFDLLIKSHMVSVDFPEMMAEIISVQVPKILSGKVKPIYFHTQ
Chain of androgen receptor (P10275 whole entry T878A): as the sequence (P10275 whole entry) above, with T878A counted along it

Row | Compound | pIC50 (human androgen receptor) | Cell proliferation rate (%) [1] | 10 μM AR expression reducing activity (androgen receptor) | antagonist activity for AR (in words) (human androgen receptor)
1 | N#Cc1ccc(N2CCc3c(ncnc3Nc3nc(C(F)(F)F)c(C(=O)NCC(F)(F)F)s3)C2)cc1C(F)(F)F [Example 26, 2-((7-(4-Cyano-3-(trifluoromethyl)phenyl)-5,6,7,8-tetrahydropyrido[3,4-d]pyrimidin-4-yl)amino)-N-(2,2,2-trifluoroethyl)-4-(trifluoromethyl)thiazol-5-carboxamide] | 7.22 | 5.7% | reduced (When the AR expression reducing activity is 50% or more, it is described as “reduced”) | 
2 | CC(C)(O)c1ccc(Nc2ncnc3c2CCN(c2ccc(C#N)c(Br)c2)C3)nc1 [Example 44, 2-Bromo-4-(4-((5-(2-hydroxypropan-2-yl)pyridin-2-yl)amino)-5,6-dihydropyrido[3,4-d]pyrimidin-7(8H)-yl)benzonitrile] | 7.30 | 5.2% | reduced (When the AR expression reducing activity is 50% or more, it is described as “reduced”) | 
3 | COc1ccc(Nc2ncnc3c2CCN(c2ccc(C#N)c(C(F)(F)F)c2)C3)cc1 [Example 3, 4-(4-((4-Methoxyphenyl)amino)-5,6-dihydropyrido[3,4-d]pyrimidin-7(8H)-yl)-2-(trifluoromethyl)benzonitrile] | 6.28 | 1.0% | reduced (When the AR expression reducing activity is 50% or more, it is described as “reduced”) | 
4 | C[C@@H](NC(=O)c1nnc(Nc2ncnc3c2CCN(c2ccc(C#N)c(C(F)(F)F)c2)C3)s1)c1nnco1 [Example 39, (R)—N-(1-(1,3,4-Oxadiazol-2-yl)ethyl)-5-((7-(4-cyano-3-(trifluoromethyl)phenyl)-5,6,7,8-tetrahydropyrido[3,4-d]pyrimidin-4-yl)amino)-1,3,4-thiadiazol-2-carboxamide] | 5.69 | 5.5% | reduced (When the AR expression reducing activity is 50% or more, it is described as “reduced”) | 
5 | N#Cc1ccc(N2CCc3c(ncnc3Nc3ccc(C(=O)NCC(F)(F)F)nn3)C2)cc1Cl [Example 49, 6-((7-(3-Chloro-4-cyanophenyl)-5,6,7,8-tetrahydropyrido[3,4-d]pyrimidin-4-yl)amino)-N-(2,2,2-trifluoroethyl)pyridazine-3-carboxamide] | 8.70 |  | reduced (When the AR expression reducing activity is 50% or more, it is described as “reduced”) | 
6 | CC(C)Oc1ccc(Nc2nnc3n2CCN(c2ccc(C#N)c(C(F)(F)F)c2)C3)cc1 [Comparative Example 3, 4-(3-((4-Isopropoxyphenyl)amino)-5,6-dihydro[1,2,4]triazolo[4,3-a]pyrazin-7(8H)-yl)-2-(trifluoromethyl)benzonitrile, reference compound] | < 5.00 |  | <10% | no antagonist activity for AR
7 | CC(C)(COc1ncc(Nc2ncnc3c2CCN(c2ccc(C#N)c(C(F)(F)F)c2)C3)cc1F)n1cnnn1 [Example 50, 4-(4-((5-Fluoro-6-(2-methyl-2-(1H-tetrazol-1-yl)propoxy)pyridin-3-yl)amino)-5,6-dihydropyrido[3,4-d]pyrimidin-7(8H)-yl)-2-(trifluoromethyl)benzonitrile] | 6.49 | −3.7% | reduced (When the AR expression reducing activity is 50% or more, it is described as “reduced”) | 
8 | CC(C)(O)c1ccc(Nc2ncnc3c2CCN(c2ccc(C#N)c(Cl)c2)C3)nc1F [Example 46, 2-Chloro-4-(4-((6-fluoro-5-(2-hydroxypropan-2-yl)pyridin-2-yl)amino)-5,6-dihydropyrido[3,4-d]pyrimidin-7 (8H)-yl)benzonitrile] | 6.60 | 1.0% | reduced (When the AR expression reducing activity is 50% or more, it is described as “reduced”) | 
9 | CC(C)(O)c1cnc(Nc2ncnc3c2CCN(c2ccc(C#N)c(C(F)(F)F)c2)C3)cc1F [Example 47, 4-(4-((4-Fluoro-5-(2-hydroxypropan-2-yl)pyridin-2-yl)amino)-5,6-dihydropyrido[3,4-d]pyrimidin-7 (8H)-yl)-2-(trifluoromethyl)benzonitrile] | 7.15 | 1.9% | reduced (When the AR expression reducing activity is 50% or more, it is described as “reduced”) | 
10 | CC(C)(COc1ncc(Nc2ncnc3c2CCN(c2ccc(C#N)c(C(F)(F)F)c2)C3)cc1F)n1ccnn1 [Example 51, 4-(4-((5-Fluoro-6-(2-methyl-2-(1H-1,2,3-triazol-1-yl)propoxy)pyridin-3-yl)amino)-5,6-dihydropyrido[3,4-d]pyrimidin-7(8H)-yl)-2-(trifluoromethyl)benzonitrile] | 5.96 | −5.4% | reduced (When the AR expression reducing activity is 50% or more, it is described as “reduced”) | 
11 | CC(C)(O)c1ccc(Nc2ncnc3c2CCN(c2ccc(C#N)c(C(F)(F)F)c2)C3)cc1 [Example 57] |  | 5.0% | reduced (When the AR expression reducing activity is 50% or more, it is described as “reduced”) | 
12 | FC(F)(F)c1ccc(Nc2ncnc3c2CCN(c2ncccc2Cl)C3)cc1 [Comparative Example 4, 7-(3-Chloropyridin-2-yl)-N-(4-(trifluoromethyl)phenyl)-5,6,7,8-tetrahydropyrido[3,4-d]pyrimidin-4-amine, reference compound] | < 5.00 |  | <10% | no antagonist activity for AR
13 | CC(C)(O)c1sc(Nc2ncnc3c2CCN(c2ccc(C#N)c(C(F)(F)F)c2)C3)nc1C(F)(F)F [Example 8, 4-(4-((5-(2-Hydroxypropan-2-yl)-4-(trifluoromethyl)thiazol-2-yl)amino)-5,6-dihydropyrido[3,4-d]pyrimidin-7(8H)-yl)-2-(trifluoromethyl)benzonitrile] | 6.60 |  | reduced (When the AR expression reducing activity is 50% or more, it is described as “reduced”) | 
14 | CC(C)(COc1ncc(Nc2ncnc3c2CCN(c2ccc(C#N)c(C(F)(F)F)c2)C3)cc1Cl)n1cnnn1 [Example 52, 4-(4-((5-Chloro-6-(2-methyl-2-(1H-tetrazol-1-yl)propoxy)pyridin-3-yl)amino)-5,6-dihydropyrido[3,4-d]pyrimidin-7(8H)-yl)-2-(trifluoromethyl)benzonitrile] | 6.82 | −3.4% | reduced (When the AR expression reducing activity is 50% or more, it is described as “reduced”) | 
15 | CC(C)Oc1ccc(Nc2ncnc3c2CN(c2ccc(C#N)c(C(F)(F)F)c2)CC3)cc1 [Comparative Example 2, 4-(4-((4-Isopropoxyphenyl)amino)-7,8-dihydropyrido[4,3-d]pyrimidin-6(5H)-yl)-2-(trifluoromethyl)benzonitrile, reference compound] | < 5.00 |  | <10% | no antagonist activity for AR
